In patent US11484539B2, “Compounds and their uses for alleviating menopause-associated symptoms” (Estetra SPRL, priority 2018, dated 2022):

Tested on: post-menopausal women
Assay: Hot Flush Weekly Weighted Score, dose-finding study
Assay type: in vivo
Conditions: for Relative change in Hot Flush Weekly Weighted Score, LS adjusted mean: analysis with placebo grouped with 2.5 and 5 mg; for LS adjusted mean change from baseline in Hot Flush Weekly Weighted Score: 15 mg E4; for Covariate significance, covariate trt1, p_value, relative change in Hot Flush Weekly Weighted Score: 15 mg vs placebo grouped with 2.5 and 5 mg
Procedure: Further, the terms “Hot Flush Weekly Weighted Score”, as used herein, corresponds to a score taking into account frequency and severity which is calculated by using the severity score (as calculated above): [(1× No. of mild VMS)+(2× No. of moderate VMS)+(3× No. of severe VMS)] during a 7 day period.
Such a weighted score was for example used by Notelovitz et al. (“Initial 17β-Estradiol Dose for Treating Vasomotor Symptoms”; Obstetrics and Gynaecology, Vol. 95(5), May 2000, p. 726-731). This score was used to generate the data included in Example 1 further below, under section A. c) “Hot Flush Weekly Weighted Score”.

SMILES: C[C@]12CC[C@@H]3c4ccc(O)cc4CC[C@H]3[C@@H]1[C@@H](O)[C@@H](O)[C@@H]2O [E4, 1,3,5 (10)-estratrien-3,15alpha,16alpha,17beta-tetrol]
- Relative change (% from baseline) in Hot Flush Weekly Weighted Score, mean (10 mg E4 QD per os, week 9): −67%
- Mean change from baseline in Hot Flush Weekly Weighted Score (10 mg E4 QD per os, week 10): −109.514
- Relative change (% from baseline) in Hot Flush Weekly Weighted Score, mean (10 mg E4 QD per os, week 10): −68%
- Mean change from baseline in Hot Flush Weekly Weighted Score (10 mg E4 QD per os, week 11): −109.532
- Relative change (% from baseline) in Hot Flush Weekly Weighted Score, mean (10 mg E4 QD per os, week 11): −69%
- Mean change from baseline in Hot Flush Weekly Weighted Score (10 mg E4 QD per os, week 12): −111.764
- Relative change (% from baseline) in Hot Flush Weekly Weighted Score, mean (10 mg E4 QD per os, week 12): −70%
- Difference with placebo, LS adjusted mean, absolute change in Hot Flush Weekly Weighted Score (10 mg E4 vs placebo, week 4): −7.296
- Difference with placebo, LS adjusted mean, absolute change in Hot Flush Weekly Weighted Score (10 mg E4 vs placebo, week 12): −5.078
- Differences with placebo (including ineffective doses 2.5 mg and 5 mg), relative change in Hot Flush Weekly Weighted Score, LS adjusted mean (10.0 mg vs 0 mg, week 4): −0.06006
- Differences with placebo (including ineffective doses 2.5 mg and 5 mg), relative change in Hot Flush Weekly Weighted Score, p_value (10.0 mg vs 0 mg, week 4): 0.4167
- Differences with placebo, relative change in weekly weighted score, p_value (10.0 mg vs 0 mg, week 4): 0.6745
- Differences with placebo (including ineffective doses 2.5 mg and 5 mg), relative change in Hot Flush Weekly Weighted Score, LS adjusted mean (10.0 mg vs 0 mg, week 12): −0.08625
- Differences with placebo (including ineffective doses 2.5 mg and 5 mg), relative change in Hot Flush Weekly Weighted Score, p_value (10.0 mg vs 0 mg, week 12): 0.1404
- Differences with placebo, relative change in weekly weighted score, p_value (10.0 mg vs 0 mg, week 12): 0.7861
- Relative change (% from baseline) in Hot Flush Weekly Weighted Score, mean (10 mg, Week 12): −69%
- Relative change (% from baseline) in weekly weighted score, LS adjusted mean (10 mg, Week 12): −0.6994
- Relative change (% from baseline) in Hot Flush Weekly Weighted Score, mean (10 mg, week 0): 0%
- Relative change (% from baseline) in Hot Flush Weekly Weighted Score, mean (10 mg, week 1): −20%
- Relative change (% from baseline) in Hot Flush Weekly Weighted Score, mean (10 mg, week 2): −34%
- Relative change (% from baseline) in Hot Flush Weekly Weighted Score, mean (10 mg, week 3): −46%
- Relative change (% from baseline) in Hot Flush Weekly Weighted Score, mean (10 mg, week 4): −53%
- Relative change (% from baseline) in weekly weighted score, LS adjusted mean (10 mg, week 4): −0.5419
- Relative change in Hot Flush Weekly Weighted Score, LS adjusted mean (10 mg, week 4): −0.5137
- Relative change (% from baseline) in Hot Flush Weekly Weighted Score, mean (10 mg, week 5): −57%
- Relative change (% from baseline) in Hot Flush Weekly Weighted Score, mean (10 mg, week 6): −62%
- Relative change (% from baseline) in Hot Flush Weekly Weighted Score, mean (10 mg, week 7): −64%
- Relative change (% from baseline) in Hot Flush Weekly Weighted Score, mean (10 mg, week 8): −66%
- Relative change (% from baseline) in Hot Flush Weekly Weighted Score, mean (10 mg, week 9): −66%
- Relative change (% from baseline) in Hot Flush Weekly Weighted Score, mean (10 mg, week 10): −68%
- Relative change (% from baseline) in Hot Flush Weekly Weighted Score, mean (10 mg, week 11): −68%
- Relative change in Hot Flush Weekly Weighted Score, LS adjusted mean (10 mg, week 12): −0.6776
- LS adjusted mean change from baseline in Hot Flush Weekly Weighted Score (week 4): −106.3
- LS adjusted mean change from baseline in Hot Flush Weekly Weighted Score (week 12): −130.6
- Mean change from baseline in Hot Flush Weekly Weighted Score (15 mg E4 QD per os, week 0): 2.219
- Mean change from baseline in Hot Flush Weekly Weighted Score (15 mg E4 QD per os, week 1): −33.1745
- Relative change (% from baseline) in Hot Flush Weekly Weighted Score, mean (15 mg E4 QD per os, week 1): −19%
- Mean change from baseline in Hot Flush Weekly Weighted Score (15 mg E4 QD per os, week 2): −67.6983
- Relative change (% from baseline) in Hot Flush Weekly Weighted Score, mean (15 mg E4 QD per os, week 2): −43%
- Mean change from baseline in Hot Flush Weekly Weighted Score (15 mg E4 QD per os, week 3): −85.1915
- Relative change (% from baseline) in Hot Flush Weekly Weighted Score, mean (15 mg E4 QD per os, week 3): −56%
- Mean change from baseline in Hot Flush Weekly Weighted Score (15 mg E4 QD per os, week 4): −98.8329
- Relative change (% from baseline) in Hot Flush Weekly Weighted Score, mean (15 mg E4 QD per os, week 4): −66%
- Mean change from baseline in Hot Flush Weekly Weighted Score (15 mg E4 QD per os, week 5): −105.223
- Relative change (% from baseline) in Hot Flush Weekly Weighted Score, mean (15 mg E4 QD per os, week 5): −70%
- Mean change from baseline in Hot Flush Weekly Weighted Score (15 mg E4 QD per os, week 6): −110.268
- Relative change (% from baseline) in Hot Flush Weekly Weighted Score, mean (15 mg E4 QD per os, week 6): −74%
- Mean change from baseline in Hot Flush Weekly Weighted Score (15 mg E4 QD per os, week 7): −115.263
- Relative change (% from baseline) in Hot Flush Weekly Weighted Score, mean (15 mg E4 QD per os, week 7): −78%
- Mean change from baseline in Hot Flush Weekly Weighted Score (15 mg E4 QD per os, week 8): −115.656
- Relative change (% from baseline) in Hot Flush Weekly Weighted Score, mean (15 mg E4 QD per os, week 8): −78%
- Mean change from baseline in Hot Flush Weekly Weighted Score (15 mg E4 QD per os, week 9): −118.578
- Relative change (% from baseline) in Hot Flush Weekly Weighted Score, mean (15 mg E4 QD per os, week 9): −80%
- Mean change from baseline in Hot Flush Weekly Weighted Score (15 mg E4 QD per os, week 10): −116.853
- Relative change (% from baseline) in Hot Flush Weekly Weighted Score, mean (15 mg E4 QD per os, week 10): −79%
- Mean change from baseline in Hot Flush Weekly Weighted Score (15 mg E4 QD per os, week 11): −119.365
- Relative change (% from baseline) in Hot Flush Weekly Weighted Score, mean (15 mg E4 QD per os, week 11): −80%
- Mean change from baseline in Hot Flush Weekly Weighted Score (15 mg E4 QD per os, week 12): −121.777
- Relative change (% from baseline) in Hot Flush Weekly Weighted Score, mean (15 mg E4 QD per os, week 12): −82%
- Difference with placebo, LS adjusted mean, absolute change in Hot Flush Weekly Weighted Score (15 mg E4 vs placebo, week 4): −28.06
- Difference with placebo, LS adjusted mean, absolute change in Hot Flush Weekly Weighted Score (15 mg E4 vs placebo, week 12): −25.91
- Differences with placebo (including ineffective doses 2.5 mg and 5 mg), relative change in Hot Flush Weekly Weighted Score, LS adjusted mean (15.0 mg vs 0 mg, week 4): −0.1788
- Differences with placebo (including ineffective doses 2.5 mg and 5 mg), relative change in Hot Flush Weekly Weighted Score, p_value (15.0 mg vs 0 mg, week 4): 0.00178
- Differences with placebo, relative change in weekly weighted score, p_value (15.0 mg vs 0 mg, week 4): 0.0267
- Differences with placebo (including ineffective doses 2.5 mg and 5 mg), relative change in Hot Flush Weekly Weighted Score, LS adjusted mean (15.0 mg vs 0 mg, week 12): −0.177
- Differences with placebo (including ineffective doses 2.5 mg and 5 mg), relative change in Hot Flush Weekly Weighted Score, p_value (15.0 mg vs 0 mg, week 12): 0.00097
- Differences with placebo, relative change in weekly weighted score, p_value (15.0 mg vs 0 mg, week 12): 0.0276
- Relative change (% from baseline) in Hot Flush Weekly Weighted Score, mean (15 mg, Week 12): −81%
- Relative change (% from baseline) in weekly weighted score, LS adjusted mean (15 mg, Week 12): −0.8122
- Relative change (% from baseline) in Hot Flush Weekly Weighted Score, mean (15 mg, week 0): 0%
- Relative change (% from baseline) in Hot Flush Weekly Weighted Score, mean (15 mg, week 1): −22%
- Relative change (% from baseline) in Hot Flush Weekly Weighted Score, mean (15 mg, week 2): −45%
- Relative change (% from baseline) in Hot Flush Weekly Weighted Score, mean (15 mg, week 3): −56%
- Relative change (% from baseline) in Hot Flush Weekly Weighted Score, mean (15 mg, week 4): −66%
- Relative change (% from baseline) in weekly weighted score, LS adjusted mean (15 mg, week 4): −0.6503
- Relative change in Hot Flush Weekly Weighted Score, LS adjusted mean (15 mg, week 4): −0.6324
- Relative change (% from baseline) in Hot Flush Weekly Weighted Score, mean (15 mg, week 5): −70%
- Relative change (% from baseline) in Hot Flush Weekly Weighted Score, mean (15 mg, week 6): −72%
- Relative change (% from baseline) in Hot Flush Weekly Weighted Score, mean (15 mg, week 7): −75%
- Relative change (% from baseline) in Hot Flush Weekly Weighted Score, mean (15 mg, week 8): −76%
- Relative change (% from baseline) in Hot Flush Weekly Weighted Score, mean (15 mg, week 9): −78%
- Relative change (% from baseline) in Hot Flush Weekly Weighted Score, mean (15 mg, week 10): −77%
- Relative change (% from baseline) in Hot Flush Weekly Weighted Score, mean (15 mg, week 11): −79%
- Relative change in Hot Flush Weekly Weighted Score, LS adjusted mean (15 mg, week 12): −0.7683
- Covariate significance, covariate trt1, p_value, relative change in Hot Flush Weekly Weighted Score (week 4, 10 mg): 0.0037
- Covariate significance, covariate trt1, p_value, relative change in Hot Flush Weekly Weighted Score (week 12, 10 mg): 0.0015
